In series [1] the target is T1, human H3 receptor (Homo sapiens, UniProt Q9Y5N1).
T1 construct: expressed in transfected cells
Description: Human H3 radioligand binding ([3H]-N-alpha-methylhistamine, SPA). Particulars: human H3 binding, Table D; read-out: Human H3 Ki. The method, boiled down:
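Compounds (0.01 nM-30 μM) competed with approximately 1 nM [3H]-N-alpha-methylhistamine for human H3 receptor in membranes of stably transfected CHO cells, 10 μg protein per well, in Tris-HCl pH 7.4/MgCl2/BSA buffer for 4 h at room temperature. Bound radioligand measured by scintillation proximity; 10 μM clobenpropit gave non-specific binding.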

In series [2] the target is T2, rat histamine H3 receptor (Rattus norvegicus, UniProt Q9QYN8).
T2 construct: encoding the entire 445-amino-acid rat histamine H3 receptor; expressed in transfected cells; membrane preparation
The series is described as follows: Rat H3 radioligand binding ([3H]-N-alpha-methylhistamine, SPA). As to conditions: rat H3 binding, Table D; read-out: Rat H3 Ki. In outline: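 SPA-bead binding assay using [3H]-N-alpha-methylhistamine (approximately 1 nM final) with test compounds from 0.01 nM to 30 μM. Rat H3 receptor membranes came from stably transfected CHO-A3 cells; incubation ran 4 h at room temperature, in the dark, in Tris pH 7.4 buffer with MgCl2 and BSA. Clobenpropit (10 μM) gave non-specific binding.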

From patent US8513232B2, “Substituted spirocyclic piperidine derivatives as histamine-3 (H3) receptor ligands” (Cephalon, Inc., priority 2008, dated 2013) come the findings set out here.

T1 sequence (Q9Y5N1 whole entry): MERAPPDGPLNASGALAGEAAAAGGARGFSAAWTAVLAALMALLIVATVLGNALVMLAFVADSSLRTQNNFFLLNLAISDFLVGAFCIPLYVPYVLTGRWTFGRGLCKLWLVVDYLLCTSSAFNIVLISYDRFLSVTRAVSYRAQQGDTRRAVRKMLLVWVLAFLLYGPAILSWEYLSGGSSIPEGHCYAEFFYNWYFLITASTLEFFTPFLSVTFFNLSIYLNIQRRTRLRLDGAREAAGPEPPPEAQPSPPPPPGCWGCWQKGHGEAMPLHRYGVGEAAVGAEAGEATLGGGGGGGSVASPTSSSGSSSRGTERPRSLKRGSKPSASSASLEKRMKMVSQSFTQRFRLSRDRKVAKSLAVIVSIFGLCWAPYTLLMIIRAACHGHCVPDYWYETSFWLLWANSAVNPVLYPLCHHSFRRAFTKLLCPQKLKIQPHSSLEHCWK
T2 sequence (Q9QYN8 whole entry): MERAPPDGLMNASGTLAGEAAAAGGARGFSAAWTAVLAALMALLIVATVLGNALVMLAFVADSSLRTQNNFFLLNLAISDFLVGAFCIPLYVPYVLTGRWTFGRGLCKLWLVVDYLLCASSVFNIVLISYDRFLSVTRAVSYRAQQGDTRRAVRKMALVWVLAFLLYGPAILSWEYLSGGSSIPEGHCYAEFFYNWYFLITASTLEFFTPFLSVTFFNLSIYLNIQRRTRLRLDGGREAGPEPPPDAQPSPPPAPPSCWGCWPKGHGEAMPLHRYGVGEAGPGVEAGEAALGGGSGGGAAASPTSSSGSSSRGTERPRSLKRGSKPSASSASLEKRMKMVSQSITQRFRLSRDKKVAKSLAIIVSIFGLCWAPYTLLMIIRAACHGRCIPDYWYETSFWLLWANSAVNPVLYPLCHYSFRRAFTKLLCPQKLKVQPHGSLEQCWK

A word on the Ki: it is the equilibrium dissociation constant of an inhibitor or competing ligand from its target. As a reminder, the melting point is the temperature of the solid-liquid transition. The compound `Cc1cc(=O)n(CC(F)(F)F)cc1-c1ccc2c(c1)COC1(CCN(C3CCC3)CC1)O2` [Example 755] yielded a melting point of 60 to 62 °C. Further, the Ki in series [1] is less than 200 nM. Moreover, the Ki in series [2] was less than 200 nM.
As for `Cc1cccc(C)c1-c1ccc2c(c1)COC1(CCN(C3CCC3)CC1)O2` [Example 756], the melting point lay in the range of 58 to 60 °C. Besides, the Ki in series [1] was less than 200 nM. The Ki in series [2] fell in the range of 200 to 1000 nM.
`c1ccn2ncc(-c3ccc4c(c3)COC3(CCN(C5CCC5)CC3)O4)c2c1` [Example 757] came in with a melting point of 158 to 160 °C. In addition, the Ki in series [1] is less than 200 nM. The Ki in series [2] was less than 200 nM.
`CC(C)n1ccc(-c2ccc3c(c2)COC2(CCN(C4CCC4)CC2)O3)cc1=O` [Example 758] yielded a melting point of 218 to 220 °C. The Ki in series [1] is less than 200 nM. Moreover, the Ki in series [2] was less than 200 nM.
Regarding `Cc1cc(=O)n(C(C)C)cc1-c1ccc2c(c1)COC1(CCN(C3CCC3)CC1)O2` [Example 759], the melting point is 65 to 68 °C. The Ki in series [1] was less than 200 nM. The Ki in series [2] was less than 200 nM.
For the compound `Cc1c(-c2ccc3c(c2)COC2(CCN(C4CCC4)CC2)O3)ccc(=O)n1C` [Example 760], the melting point is 59 to 61 °C. Moreover, the Ki in series [1] was less than 200 nM. The Ki in series [2] is less than 200 nM.
Regarding `COc1cc(-c2ccc3c(c2)COC2(CCN(C4CCC4)CC2)O3)cn(C)c1=O` [Example 761], the melting point is 70 to 72 °C. Besides, the Ki in series [1] is less than 200 nM. Moreover, the Ki in series [2] is less than 200 nM.
As for `CCOC(=O)c1cc(=O)n(C)cc1-c1ccc2c(c1)COC1(CCN(C3CCC3)CC1)O2` [Example 762], the melting point was in the range of 71 to 74 °C. In addition, the Ki in series [1] is less than 200 nM. For the same compound, in series [2], the Ki was less than 200 nM.
Take `Cc1c(-c2ccc3c(c2)COC2(CCN(C4CCC4)CC2)O3)ccc(=O)n1C(F)F` [Example 763]: the melting point was 143 to 145 °C. Further, in series [1], the Ki was less than 200 nM. Besides, in series [2], the Ki is less than 200 nM.
For the compound `Cc1cc(=O)n(C(F)F)cc1-c1ccc2c(c1)COC1(CCN(C3CCC3)CC1)O2` [Example 764], the melting point lay within 119 to 121 °C. Besides, the Ki in series [1] was less than 200 nM. Further, the Ki in series [2] was less than 200 nM.
Consider `CCSc1c[nH]c(=O)cc1-c1ccc2c(c1)COC1(CCN(C3CCC3)CC1)O2` [Example 765], for which the melting point lay in the range of 85 to 88 °C. Besides, the Ki in series [1] is less than 200 nM. Also, the Ki in series [2] is less than 200 nM.
Take `O=c1cc(-c2ccc3c(c2)COC2(CCN(C4CCC4)CC2)O3)c(F)c[nH]1` [Example 766]: the melting point lay in the range of 254 to 255 °C. In addition, the Ki in series [1] was less than 200 nM. In addition, the Ki in series [2] is less than 200 nM.
The compound `CCc1[nH]c(=O)ccc1-c1ccc2c(c1)COC1(CCN(C3CCC3)CC1)O2` [Example 767] returned a melting point of 230 to 231 °C. Besides, the Ki in series [1] is less than 200 nM. Besides, the Ki in series [2] was less than 200 nM.
Compound `COc1ncc(-c2ccc3c(c2)COC2(CCN(C4CCC4)CC2)O3)cc1CO` [Example 768] gave a melting point of 150 to 151 °C. Further, in series [1], the inhibitory constant (Ki) is less than 200 nM. Further, in series [2], the Ki is less than 200 nM.
In the case of `COc1cc(C)c(-c2ccc3c(c2)CCC2(CCN(C4CCC4)CC2)O3)cn1` [Example 769], the melting point was in the range of 127 to 128 °C. The Ki in series [1] is less than 200 nM. Further, the Ki in series [2] is less than 200 nM.
Consider `Cn1cc(-c2ccc3c(c2)COC2(CCN(C4CCC4)CC2)O3)c(CO)cc1=O` [Example 770], for which the melting point lay in the range of 120 to 123 °C. In addition, the Ki in series [1] is less than 200 nM. Further, in series [2], the Ki is less than 200 nM.
In turn, `Cc1cc(=O)[nH]cc1-c1ccc2c(c1)CCC1(CCN(C3CCC3)CC1)O2` [Example 771] returned a melting point of 252 to 254 °C. The inhibition constant Ki in series [1] was less than 200 nM. In addition, the Ki in series [2] was less than 200 nM.
Consider `O=c1cc(-c2ccc3c(c2)COC2(CCN(C4CCC4)CC2)O3)ccn1CC(F)(F)F` [Example 772], for which the melting point lay in the range of 196 to 198 °C. Also, the Ki in series [1] was less than 200 nM. Moreover, in series [2], the inhibition constant (Ki) was less than 200 nM.
Compound `O=c1[nH]cc(-c2ccc3c(c2)COC2(CCN(C4CCC4)CC2)O3)cc1CO` [Example 773] displayed a melting point of 228 to 230 °C. Further, the Ki in series [1] was less than 200 nM. For the same compound, in series [2], the Ki is less than 200 nM.
With `CCSCc1cc(-c2ccc3c(c2)COC2(CCN(C4CCC4)CC2)O3)c[nH]c1=O` [Example 774], the melting point fell in the range of 205 to 207 °C. The Ki in series [1] was less than 200 nM. Also, in series [2], the Ki was less than 200 nM.
Compound `O=c1cc(-c2ccc3c(c2)COC2(CCN(C4CCC4)CC2)O3)ccn1C(F)F` [Example 775] came in with a melting point of 175 to 177 °C. Besides, the Ki in series [1] is less than 200 nM. Also, the Ki in series [2] was less than 200 nM.
Consider `Cc1c(-c2ccc3c(c2)COC2(CCN(C4CCC4)CC2)O3)cn(C(C)C)c(=O)c1C` [Example 776], for which the melting point was in the range of 89 to 92 °C. Further, the Ki in series [1] is less than 200 nM. For the same compound, the Ki in series [2] is less than 200 nM.
Compound `O=c1[nH]cc(-c2ccc3c(c2)COC2(CCN(C4CCC4)CC2)O3)c2ccccc12` [Example 777] came in with a melting point of 202 to 204 °C. Further, in series [1], the Ki is less than 200 nM. Moreover, in series [2], the Ki is less than 200 nM.
The compound `CCn1cc(-c2ccc3c(c2)COC2(CCN(C4CCC4)CC2)O3)ccc1=O` [Example 778] showed a melting point of 156 to 158 °C. Also, the Ki in series [1] was less than 200 nM. Besides, the Ki in series [2] was less than 200 nM.
Compound `CC(C)n1cc(Cl)c(-c2ccc3c(c2)COC2(CCN(C4CCC4)CC2)O3)cc1=O` [Example 779] yielded a melting point of 179 to 181 °C. Also, the Ki in series [1] was less than 200 nM. Moreover, in series [2], the Ki was less than 200 nM.
Take `CC(C)Oc1cc(-c2ccc3c(c2)COC2(CCN(C4CCC4)CC2)O3)c(Cl)cn1` [Example 780]: the melting point is 131 to 132 °C. Moreover, in series [1], the Ki was less than 200 nM. In series [2], the Ki is less than 200 nM.
For the compound `O=c1cc(-c2ccc3c(c2)COC2(CCN(C4CCC4)CC2)O3)c(Cl)cn1CC(F)(F)F` [Example 781], the melting point was 194 to 197 °C. Also, the Ki in series [1] was less than 200 nM. In series [2], the Ki was less than 200 nM.
As to `FC(F)(F)COc1cc(-c2ccc3c(c2)COC2(CCN(C4CCC4)CC2)O3)c(Cl)cn1` [Example 782], the melting point is 119 to 121 °C. In series [1], the Ki is less than 200 nM. Moreover, the Ki in series [2] is less than 200 nM.
Compound `Cc1c(-c2ccc3c(c2)COC2(CCN(C4CCC4)CC2)O3)cn(CC(F)(F)F)c(=O)c1C` [Example 783] displayed a melting point of 96 to 98 °C. Further, the Ki in series [1] was less than 200 nM. In addition, the Ki in series [2] was less than 200 nM.
Consider `O=c1c(Cl)c(-c2ccc3c(c2)COC2(CCN(C4CCC4)CC2)O3)ccn1CC(F)(F)F` [Example 784], for which the melting point was in the range of 71.2 to 73.6 °C. Moreover, in series [1], the Ki is less than 200 nM. Besides, the Ki in series [2] was less than 200 nM.
For the compound `Cc1cscc1-c1ccc2c(c1)COC1(CCN(C3CCC3)CC1)O2` [Example 785], the melting point fell in the range of 91 to 93 °C. In addition, in series [1], the Ki is less than 200 nM. For the same compound, the Ki in series [2] was less than 200 nM.
In the case of `Cn1cc(-c2ccc3c(c2)COC2(CCN(C4CCC4)CC2)O3)c2ccccc2c1=O` [Example 786], the melting point fell in the range of 207 to 209 °C. Moreover, the Ki in series [1] was less than 200 nM. Also, the Ki in series [2] was less than 200 nM.
In turn, `Cc1nc2ccccc2c(=O)n1-c1ccc2c(c1)COC1(CCN(C3CCC3)CC1)O2` [Example 787] had a melting point of 206 to 207 °C. Also, the Ki in series [1] was less than 200 nM. In series [2], the Ki was less than 200 nM.
As for `COc1ncc(-c2ccc3c(c2)COC2(CCN(C4CCC4)CC2)O3)cc1O` [Example 788], the melting point was 61 to 63 °C. The Ki in series [1] was less than 200 nM. Besides, the Ki in series [2] is less than 200 nM.
In the case of `CCc1nc(OC)ccc1-c1ccc2c(c1)COC1(CCN(C3CCC3)CC1)O2` [Example 789], the melting point is 59 to 61 °C. For the same compound, the inhibition constant (Ki) in series [1] was less than 200 nM. In addition, the Ki in series [2] is less than 200 nM.
Compound `Cc1nc2cccc(C(F)(F)F)c2c(=O)n1-c1ccc2c(c1)COC1(CCN(C3CCC3)CC1)O2` [Example 791] registered a melting point of 221 to 222 °C. Also, in series [1], the Ki was less than 200 nM. Also, the Ki in series [2] is less than 200 nM.
For `Cc1ccc2nc(C)n(-c3ccc4c(c3)COC3(CCN(C5CCC5)CC3)O4)c(=O)c2c1` [Example 792], the melting point lay within 149 to 152 °C. In addition, the inhibition constant (Ki) in series [1] is less than 200 nM. Moreover, the Ki in series [2] is less than 200 nM.
The compound `CCS(=O)(=O)c1c[nH]c(=O)cc1-c1ccc2c(c1)COC1(CCN(C3CCC3)CC1)O2` [Example 793] displayed a melting point of 190 to 192 °C. Moreover, the Ki in series [1] was less than 200 nM. The Ki in series [2] was less than 200 nM.
As for `COc1ccc2nc(C)n(-c3ccc4c(c3)COC3(CCN(C5CCC5)CC3)O4)c(=O)c2c1` [Example 794], the melting point was 155 to 157 °C. Moreover, the Ki in series [1] was less than 200 nM. Moreover, the Ki in series [2] was less than 200 nM.
`COc1cc(C)c(-c2ccc3c(c2)COC2(CCN(C4CCC4)CC2)O3)c(C)n1` [Example 795]: the melting point lay in the range of 149.8 to 150.4 °C. The Ki in series [1] was less than 200 nM. In addition, in series [2], the Ki is less than 200 nM.
Turning to `COc1nc(C)c(-c2ccc3c(c2)COC2(CCN(C4CCC4)CC2)O3)cc1C#N` [Example 796], the melting point was 215 to 217 °C. Further, the Ki in series [1] was less than 200 nM. The Ki in series [2] is less than 200 nM.
